“Also recorded” adds a separate entry of the source.
Experiments:
[1] = Toxicity assessment in B16 melanoma-bearing mice; format: in vivo; conditions: five injections, 50 mg/kg i.p.
Protocol: (§1) To generate a metastatic model of tumor progression, 10^5 B16 melanoma cells suspended in 0.2 mL of saline buffer were inoculated into the lateral tail vein of C57Bl/6 mice. On day 4 after tumor transplantation, mice were divided into three groups (n = 9 per group): (1) mice without treatment (control); (2) mice who received intraperitoneal (i.p.) injections of 10% Tween-80 (vehicle); and (3) mice who received i.p. injections of 5f in 10% Tween-80 at a dose of 50 mg/kg. The treatment was carried out three times a week. The total number of injections was five. Mice were sacrificed on day 14 after B16 melanoma transplantation and the lungs were collected for calculation of surface metastases.
During the experiment, general status of the animals and body weight were monitored. At the end of the experiment, organs were collected and organ indexes were calculated as (organ weight / body weight) × 100%.

[2] = system: activated caspases in HeLa cells; assay: Metacaspases activity assay (FITC-VAD-FMK); format: cell-based, human; conditions: dose-dependent
Protocol: The activity of caspases was determined by using a CaspACE^TM FITC-VAD-FMK (Promega, Madison, WI, USA). Briefly, HeLa cells were cultured in 24-well plates for 24 h under standard conditions and treated by 5f at 7 or 10 µM for 48 h. The cells were collected and incubated with fluorophore-conjugated pancaspase inhibitor FITC-VAD-FMK in darkness for 30 min at room temperature. After incubation, the cells were centrifuged, washed twice with PBS, and analyzed by flow cytometry. For each sample, 10,000 events were acquired.

HeLa cells [3] = assay: Colony-forming assay; format: cell-based, human; conditions: 14 days
Protocol: HeLa cells were seeded in 96-well plates in tetraplicates at a density of 100 cells/well and treated by 5f (0.25, 0.5 µM) for 14 days under standard conditions. Then cell colonies were fixed with 4% paraformaldehyde, stained with crystal violet dye (0.1% w/v), and photographed using a Vilber Lourmat transilluminator (Marne La Vallee, France). The percentage of area covered by cell colonies was calculated using a ColonyArea ImageJ plugin [91].

B16 melanoma = assay: Metastatic model of murine B16 melanoma in C57Bl/6 mice; format: in vivo; conditions: five injections; for decrease of the numbers of surface metastases in the lungs: day 14
Protocol: as §1
To study the antimetastatic action of 5f, evaluation of surface metastases in lungs of B16 melanoma bearing mice was carried out. Surface metastases in the lungs were counted using a binocular microscope. Inhibition of metastases development was assessed using the metastasis inhibition index (MII), calculated according to the formula: MII=(∑n(N¯control−Nn)×100% /N¯control)/n, where N is the number of surface metastases and n is the number of mice in the analyzed group. The MII of the control group was taken as 0% and the MII reflecting the absence of metastases was taken as 100%.

HeLa cells [4] = assay: Mitochondrial membrane potential (JC-1, flow cytometry); format: cell-based, human; conditions: 48 h, JC-1, HeLa
Protocol: HeLa cells were cultured in 24-well plates for 24 h under standard conditions and treated by 5f at 7 or 10 µM for a subsequent 48 h. After the treatment, the cells were collected and resuspended at 10^6 cells/mL in PBS-contained JC-1 (5 µg/mL). After 30 min of incubation under standard conditions, the cells were centrifuged, washed with PBS, and analyzed using the NovoCyte Flow Cytometer (ACEA Biosciences Inc., San Diego, CA, USA). In total, 10,000 events were acquired for each sample.

## CC1(C)C2CC[C@]3(C)C(C(=O)C=C4[C@@H]5C[C@@](C)(c6nc(-c7ccccn7)no6)CC[C@]5(C)CC[C@]43C)[C@@]2(C)CC[C@@H]1O (stereo partly drawn) [Compound 5f, 30-nor-3β-hydroxy-11-oxo-20-(3′-(pyridin-2′′-yl)-1′,2′,4′-oxadiazol-5′-yl)-18βH-olean-12-en]
[1]
  survival during the experiment: all 5f-treated mice were alive
[1]; 50 mg/kg
  toxic effects in mice (organ indexes): did not cause toxic and unspecific immunomodulatory effects; also recorded: without systemic toxicity
[2]
  metacaspase activation (FITC-VAD-FMK fluorescence): significantly increased the intensity of FITC fluorescence
HeLa cells [3]; 0.5 µM
  suppression of colony formation compared to the control: three-fold
HeLa cells [3]; lower concentration (0.25 µM)
  effect on clonogenic characteristics: had no effect on the clonogenic characteristics of HeLa cells
B16 melanoma; 50 mg/kg i.p.
  mice with kidney metastases: 2/9
  mice with liver metastases: 1/9
B16 melanoma; 50 mg/kg i.p., compared to untreated control animals
  decrease of the numbers of surface metastases in the lungs: 4.5 times
B16 melanoma; 50 mg/kg i.p., compared to vehicle-treated animals
  decrease of the numbers of surface metastases in the lungs: 3.4 times
B16 melanoma; 50 mg/kg i.p., relative to untreated control
  metastasis inhibition index (MII): 77.7 ± 4.7%
B16 melanoma; 50 mg/kg
  suppression of metastasis growth compared to the vehicle-treated control: 70%
HeLa cells [4]; 7 µM
  cells with collapsed membrane potential (gate P3): 72.5%
HeLa cells [4]; 10 µM
  cells with collapsed membrane potential (gate P3): 85.2%
